Where two headings read alike, the source gives them in different places.
Columns and labels:
[1] = human, in vivo, iv; cited from earlier work
guinea pigs = details: non-ascorbate deficient animals, double the dose of 3.75 mmol/kg daily; cited from earlier work
Mouse = details: pretreatment with GSH; cited from earlier work
[2] = system: systolic and diastolic blood pressure; details: cited from earlier work
in vivo = details: po
Text: Once past the stomach, it is important that the glutathione be immediately available for absorption, as the desulfurases and peptidases from the pancreas, as well as the increase in pH, do tend to degrade the glutathione. […] Thus, by providing a high concentration of glutathione in the duodenum, without substantial dilution, the glutathione may be absorbed at a maximum rate.

For `N[C@@H](CCC(=O)N[C@@H](CS)C(=O)NCC(=O)O)C(=O)O` [GSH, gamma-glutamyl-cysteinyl-glycine], the half-life [1] is listed as 14.1−9.2 minutes, the “volume of distribution of exogenous glutathione” value [1] is listed as 176−107 Ml/Kg and the toxicity (guinea pigs) is listed as “seen at double this dose”. For the same compound, the “effect on morphine-induced lethality” value (Mouse) was “protects against morphine-induced lethality”, the “time of return of blood pressure to baseline” value ([2]; 1,844 mg i.v. bolus) was at most 30 min and the blood pressure effect ([2]; 1,844 mg i.v. bolus, hypertensive patients and non-hypertensive diabetics) was “rapid and significant decrease in both systolic and diastolic blood pressure”. The blood pressure effect ([2]; 1,844 mg i.v. bolus, normal healthy subjects) was “no effect”, the blood pressure effect ([2]; 3,699 mg dose, normal subjects) was “significant decrease in the blood pressure values” and the bioavailability (in vivo) was about 90%.
